Results from patent US4056629A, “Pharmacologically active O-acyl-2,3-diaryl-3-halogeno-acryl-aldoximes” (Hoechst Aktiengesellschaft, priority 1975, dated 1977).

Assays:
[1] = test system: gout-like disturbance of the purine metabolism; experiment: 3-day cycle in the oxonate rat (uric acid in urine on days 1-3 and in serum on day 3); assay type: in vivo, white male Wistar rats; settings: for Serum Uric acid conc.: third day, * statistically significant p < 0.05 (Duncan test)
Experimental: (§1) The uricosuric and hypouricemic effects were observed by way of experiment on the oxonate rat. In this experimental test arrangement the uricase activity of the rat liver was inhibited by the administration of potassium oxonate, thus producing a gout-like disturbance of the purine metabolism. The effect was tested in the following test arrangement:
2. The influence on the gout-like metabolism disturbance which had been induced by way of experiment was also examined in a 3-day cycle. For this purpose, the animals (white male Wistar rats) were placed into the metabolism cages 18 hours prior to the start of the experiment. The animals drank water, and they were offered a special fodder mixture to consume ad libitum. The composition of the fodder mixture was as follows: 5 % of fructose, 3% of uric acid, 2 % of potassium oxonate, and 100 mg of synthetic sweetening agent (acesulfame) per 1 kg of body weight. On the first and second days of the experiment, the compositions were administered to the animals, in a 0.5 % potassium-oxanate solution, into the stomach by way of an esophagal sound. The urine samples were examined on the first, second and third days of the experiment, and the serum samples were tested for their uric acid content on the third day of the experiment.
In Table 4 the results following the application of allopurinol (as comparative substance) have been indicated in the above-mentioned experimental scheme.

[2] = test system: gout-like disturbance of the purine metabolism; experiment: 24-hour test in the oxonate rat (uric acid, urine volume, pH and Na+ after potassium oxonate); assay type: in vivo, male Wistar rats; settings: for Activity in words (heading of Table 2): Example 14 combined with the increase of diuresis and the excretion of sodium; for Uric acid serum (-x (mg %) ± SD): control 5.41 + 0.66, * statistically significant (U test)
Experimental: as §1
1. The influence on the gout-like disturbance of the purine metabolism which had been induced by way of experiment was tested in a 24 hour test. In this test arrangement, the animals are given the substances in a 0.5 % potassium-oxonate solution into the stomach by means of an esophagal sound, after water and fodder had been withheld for 18 hours. During the entire test period, the animals are given the 0.5 % potassium-oxonate solution ad libitum. After 8 hours, they are additionally given 5 ml of water per 100 g of body weight into the stomach, by way of an esophagal sound. After 24 hours urine samples were taken, the animals were killed in a narcosis produced by ether, and the blood and urine were analysed for the content of uric acid. In addition, the creatinine concentration, the sodium, potassium and chloride concentration in the urine and serum samples were determined.

[3] = Table 3, 3 mg/kg, 1st day, oxonate control 3.38
[4] = Table 3, 3 mg/kg, 1st day, oxonate control 42.5
[5] = Table 3, 3 mg/kg, 2nd day, oxonate control 3.83
[6] = Table 3, 3 mg/kg, 2nd day, oxonate control 42.9
[7] = Table 3, 3 mg/kg, 3rd day, oxonate control 5.17
[8] = Table 3, 3 mg/kg, 3rd day, oxonate control 48.8
[9] = Table 3, 3 mg/kg, oxonate control 5.49
[10] = Table 2 I, 3 mg/kg, oxonate control group = 100
[11] = Table 2 II, 0.3 mg/kg, control = 100
[12] = Table 2 II, 3.0 mg/kg, control = 100

CC(=O)ON=CC(=C(Br)c1ccccc1)c1ccccc1 [Example 6, O-acetyl-2-phenyl-3-bromo-cinnamic aldoxime]
Urine Amount of uric acid [1, 3]: 2.40 mg/24 h | Urine Uric acid conc. [1, 4]: 33.4 mg % | Urine Amount of uric acid [1, 5]: 2.96 mg/24 h | Urine Uric acid conc. [1, 6]: 32.8 mg % | Urine Amount of uric acid [1, 7]: 2.98 mg/24 h | Urine Uric acid conc. [1, 8]: 32.7 mg % | Serum Uric acid conc. [1, 9]: 3.65 mg %

O=C(Nc1ccccc1)ON=CC(=C(Br)c1ccccc1)c1ccccc1 [Example 14, 2-phenyl-3-bromo-cinnamic aldoxime-O-(N-phenyl)-carbamate]
Amount of urine Na+ ([2]; Table 2 I, 3 mg/kg, control 0.09 + 0.03): 0.11 + 0.02 mg/24 hr/100 g b. wt. | Amount of urine excreted (-x + SD) ([2]; Table 2 I, 3 mg/kg, control 7.1 + 2.1): 9.3 + 3.06 ml/24 hr./100 g b. wt. | urine pH ([2]; Table 2 I, 3 mg/kg, control 7.5 + 0.2, * statistically significant (Scheffe test)): 7.2 + 0.08 | Amount of urine excreted, % control [2, 10]: 130 % control | Uric acid excretion, % control [2, 10]: 118 % control | Uric acid excretion (-x ± SD) ([2]; Table 2 I, oxonate rat, 3 mg/kg, into the stomach): 3.52 ± 1.11 mg/24 hr./100 g b. wt. | Activity in words (heading of Table 2) ([2]; oxonate rat): uricosuric activity

CCCCCCCCCC(=O)ON=CC(=C(Cl)c1ccc(OC)cc1)c1ccc(OC)cc1 [Example 8, O-caprinoyl-2-(4-methoxyphenyl)-3-chloro-p-methoxy-cinnamic aldoxime]
Uric acid excretion (-x ± SD) ([2]; Table 2 II, 0.3 mg/kg, control 2.74 + 1.43): 3.25 + 1.68 mg/24 hr./100 g b. wt. | Uric acid serum (-x (mg %) ± SD) ([2]; Table 2 II, 0.3 mg/kg): 5.00 + 0.54 mg % | Uric acid excretion, % control [2, 11]: 118 % control | Uric acid serum, % control [2, 11]: 92 % control | Uric acid excretion (-x ± SD) ([2]; Table 2 II, 3.0 mg/kg, control 2.74 + 1.43): 2.46 + 1.19 mg/24 hr./100 g b. wt. | Uric acid serum (-x (mg %) ± SD) ([2]; Table 2 II, 3.0 mg/kg): 4.81 + 0.74 mg % | Uric acid excretion, % control [2, 12]: 89 % control | Uric acid serum, % control [2, 12]: 88 % control | Activity in words (heading of Table 2) ([2]; oxonate rat): uricosuric and hypouricemic activity

Oc1ncnc2[nH]ncc12 [Allo, Allopurinol, reference compound]
Urine Amount of uric acid ([1]; Table 4, 50 mg/kg, 1st day, oxonate control 0.80): 0.91 mg/24 h | Urine Uric acid conc. ([1]; Table 4, 50 mg/kg, 1st day, oxonate control 11.3): 11.6 mg % | Urine Amount of uric acid ([1]; Table 4, 50 mg/kg, 2nd day, oxonate control 2.6): 2.1 mg/24 h | Urine Uric acid conc. ([1]; Table 4, 50 mg/kg, 2nd day, oxonate control 23.9): 18.7 mg % | Urine Amount of uric acid ([1]; Table 4, 50 mg/kg, 3rd day, oxonate control 3.4): 3.8 mg/24 h | Urine Uric acid conc. ([1]; Table 4, 50 mg/kg, 3rd day, oxonate control 36.4): 31.6 mg % | Serum Uric acid conc. ([1]; Table 4, 50 mg/kg, oxonate control 6.7): 6.2 mg % | Urine Amount of uric acid ([1]; Table 4, 100 mg/kg, 1st day, oxonate control 0.80): 0.9 mg/24 h | Urine Uric acid conc. ([1]; Table 4, 100 mg/kg, 1st day, oxonate control 11.3): 12.7 mg % | Urine Amount of uric acid ([1]; Table 4, 100 mg/kg, 2nd day, oxonate control 2.6): 2.0 mg/24 h | Urine Uric acid conc. ([1]; Table 4, 100 mg/kg, 2nd day, oxonate control 23.9): 19.9 mg % | Urine Amount of uric acid ([1]; Table 4, 100 mg/kg, 3rd day, oxonate control 3.4): 3.7 mg/24 h | Urine Uric acid conc. ([1]; Table 4, 100 mg/kg, 3rd day, oxonate control 36.4): 28.2 mg % | Serum Uric acid conc. ([1]; Table 4, 100 mg/kg, oxonate control 6.7): 5.2 mg %

O=C(ON=CC(=C(Br)c1ccccc1)c1ccccc1)c1ccccc1 [Example 5, O-benzoyl-2-phenyl-3-bromo-cinnamic aldoxime]
Urine Amount of uric acid [1, 3]: 2.59 mg/24 h | Urine Uric acid conc. [1, 4]: 38.9 mg % | Urine Amount of uric acid [1, 5]: 2.41 mg/24 h | Urine Uric acid conc. [1, 6]: 32.4 mg % | Urine Amount of uric acid [1, 7]: 3.68 mg/24 h | Urine Uric acid conc. [1, 8]: 34.7 mg % | Serum Uric acid conc. [1, 9]: 4.07 mg %

CCCCCCCCCC(=O)ON=CC(=C(Br)c1ccccc1)c1ccccc1 [Example 7, O-caprinoyl-2-phenyl-3-bromo-cinnamic aldoxime]
Urine Amount of uric acid [1, 3]: 2.78 mg/24 h | Urine Uric acid conc. [1, 4]: 36.4 mg % | Urine Amount of uric acid [1, 5]: 2.99 mg/24 h | Urine Uric acid conc. [1, 6]: 31.8 mg % | Urine Amount of uric acid [1, 7]: 2.74 mg/24 h | Urine Uric acid conc. [1, 8]: 31.2 mg % | Serum Uric acid conc. [1, 9]: 4.03 mg %
